Measured values taken from article PMC8115619, “Generation of a chemical genetic model for JAK3” (Scientific Reports, 2021).

Experiments:
[1] = test system: JAK3; conditions: ATP 4 μM; read-out: In vitro IC50 JAK3; cited from earlier work
[2] = test system: IL-2 induced STAT5 phosphorylation in wild type CD8 T cells; assay: IL-2 induced STAT5 phosphorylation in wild type T cells; type: cell-based, mouse; conditions: inhibitor 30 min, 10 ng/ml IL-2 30 min
Method: (§1) (A) Single cell suspensions were prepared from the spleens of wild type mice. […] Cells were then stimulated with 10 ng/ml IL-4 for 30 min and the levels of phosphorylated STAT6 determined by immunoblotting. (B) As (A) except cells were stimulated with 10 ng/ml IL-2 and the levels of phosphorylated STAT5 determined. (C) CD8 T cells were expanded from the lymph nodes of wild type and JAK3 Cys905Ser knockin mice. Cells were rested in the absence of IL-2 for 60 min then incubated with the indicated concentrations of PF-06651600 for a further 30 min before stimulation with 10 ng/ml of IL-2 for 30 min. The levels of phosphorylated STAT5 and total ERK1/2 were then determined.
(§2) Lymph Nodes were harvested from the mice and a single cell suspension in PBS made by passing the tissue through a […] strainer. The cells were counted and seeded at density of 10^6 cells/ml in RPMI supplemented with10% heat inactivated FBS (Labtech), 2 mM L-glutamine, 100 U/ml penicillin G, 100 μg/ml streptomycin, 0.25 μg/ml amphotericin and 50 μM β-mercaptoethanol and stimulated with 1 μg/ml anti-CD28 (cat:16-0281-82; clone:37.51 Thermo Fisher), 1 μg/ml anti CD3e (cat:16-0031-85, Clone:145-2C11 Thermo Fisher), 20 ng/ml of IL-2 and 1 ng/ml of IL-12. The cells were cultured for 36 h and then the cell suspension was diluted 5 times with RPMI media containing 20 ng/ml of IL-2. […]

[3] = test system: JAK1; conditions: ATP 40 μM; read-out: In vitro IC50 JAK1; cited from earlier work
[4] = test system: IL-2 induced STAT5 phosphorylation in T cells from JAK3 Cys905Ser knockin mice; assay: IL-2 induced STAT5 phosphorylation in JAK3 Cys905Ser knockin T cells; type: cell-based, mouse; conditions: CD8 T cells, inhibitor 30 min, 10 ng/ml IL-2 30 min
Method: as §1, §2

[5] = test system: JAK2; conditions: ATP 4 μM; read-out: In vitro IC50 JAK2; cited from earlier work
[6] = biological target: ERK1 (Homo sapiens, UniProt P27361); assay: Selectivity screen ERK1; type: biochemical; conditions: 1 µM inhibitor, mean
Chain of ERK1 (P27361 whole entry): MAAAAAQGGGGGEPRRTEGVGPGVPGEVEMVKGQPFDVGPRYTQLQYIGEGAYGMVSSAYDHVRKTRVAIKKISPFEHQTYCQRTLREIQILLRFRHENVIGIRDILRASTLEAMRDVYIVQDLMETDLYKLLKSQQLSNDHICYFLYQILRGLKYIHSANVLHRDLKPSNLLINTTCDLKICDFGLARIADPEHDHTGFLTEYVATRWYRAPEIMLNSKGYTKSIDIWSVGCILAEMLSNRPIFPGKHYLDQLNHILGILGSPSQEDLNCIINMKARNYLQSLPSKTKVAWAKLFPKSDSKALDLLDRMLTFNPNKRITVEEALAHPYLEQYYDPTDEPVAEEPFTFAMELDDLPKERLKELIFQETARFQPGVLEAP
Method: (§3) For the in vitro kinase assay, JAK3 (5–20 mU diluted in 50 mM Tris pH 7.5, 0.1 mM EGTA, 0.05% β-mercaptoethanol, 1 mg/ml BSA) was assayed against PDKtide ([…]) in a final volume of 25.5 µl containing 50 mM Tris pH 7.5, 0.1 mM EGTA, 0.05% β-mercaptoethanol, 100 µM substrate peptide, 10 mM magnesium acetate and 0.02 mM [33P-γ-ATP] (50–1000 cpm/pmole) and incubated for 30 min at room temperature. Assays were started by the addition of the ATP and stopped by addition of 5 µl of 0.5 M (3%) orthophosphoric acid and then harvested onto P81 Unifilter plates with a wash buffer of 50 mM orthophosphoric acid. To determine the Km for ATP, assays were run using 1, 5, 10, 20, 50, 100, 200, 400, 500 μM ATP and Km derived by non-linear regression fitting to the Michaelis–Menten equation v = Vmax[S]/(Km + [S]). IC50 values for inhibitors via non-linear regression using a parameter model: Y = Bottom + (Top–Bottom)/(1 + (IC50/X)^HillSlope). Non-linear regression was carried out in Prism (version 8). In vitro selectivity screen was carried out as described previously.

[7] = test system: IL-10 induced STAT3 phosphorylation in BMDMs; design: method as in PMID 26258521; conditions: cited from earlier work
[8] = test system: IFNβ induced STAT1 phosphorylation in BMDMs; design: method as in PMID 26258521; conditions: cited from earlier work
[9] = biological target: PAK4 (Homo sapiens, UniProt O96013); assay: Selectivity screen PAK4; type: biochemical; conditions: 1 µM inhibitor, mean
Chain of PAK4 (O96013 whole entry): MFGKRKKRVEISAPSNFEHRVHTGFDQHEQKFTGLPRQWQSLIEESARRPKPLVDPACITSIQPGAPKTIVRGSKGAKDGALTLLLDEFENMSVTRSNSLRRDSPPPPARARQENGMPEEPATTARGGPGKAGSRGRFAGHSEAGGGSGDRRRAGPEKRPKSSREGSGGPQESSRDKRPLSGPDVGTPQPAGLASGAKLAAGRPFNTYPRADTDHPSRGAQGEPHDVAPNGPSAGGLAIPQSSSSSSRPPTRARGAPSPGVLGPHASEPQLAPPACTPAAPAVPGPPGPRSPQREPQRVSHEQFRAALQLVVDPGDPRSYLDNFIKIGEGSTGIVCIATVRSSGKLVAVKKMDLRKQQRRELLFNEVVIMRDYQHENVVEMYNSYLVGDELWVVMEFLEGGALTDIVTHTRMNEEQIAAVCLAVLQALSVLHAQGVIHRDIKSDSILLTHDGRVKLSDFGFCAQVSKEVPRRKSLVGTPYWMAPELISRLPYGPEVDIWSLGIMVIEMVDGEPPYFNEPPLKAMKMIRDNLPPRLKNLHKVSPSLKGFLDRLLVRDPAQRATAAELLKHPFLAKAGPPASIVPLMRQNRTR
Method: as §3

[10] = test system: GM-CSF induced STAT5 phosphorylation in BMDMs; design: method as in PMID 26258521; conditions: 5 μM; cited from earlier work
[11] = biological target: PKBa (Homo sapiens, UniProt P31749); assay: Selectivity screen PKBa; type: biochemical; conditions: 1 µM inhibitor, mean; read-out: activity remaining in the presence of the inhibitor: PKBa
Chain of PKBa (P31749 whole entry): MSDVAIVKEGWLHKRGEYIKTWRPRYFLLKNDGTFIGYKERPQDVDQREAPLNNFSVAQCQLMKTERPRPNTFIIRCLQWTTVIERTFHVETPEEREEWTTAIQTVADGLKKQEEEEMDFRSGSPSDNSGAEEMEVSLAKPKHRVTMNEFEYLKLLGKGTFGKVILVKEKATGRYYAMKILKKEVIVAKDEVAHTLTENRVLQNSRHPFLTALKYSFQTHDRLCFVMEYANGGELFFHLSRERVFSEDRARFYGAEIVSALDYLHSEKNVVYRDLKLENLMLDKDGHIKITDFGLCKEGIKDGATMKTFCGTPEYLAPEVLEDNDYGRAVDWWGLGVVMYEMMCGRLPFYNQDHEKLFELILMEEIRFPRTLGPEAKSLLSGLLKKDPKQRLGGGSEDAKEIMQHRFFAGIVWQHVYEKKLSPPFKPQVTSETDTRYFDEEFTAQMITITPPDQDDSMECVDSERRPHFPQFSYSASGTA
Method: as §3

| SMILES | IC50 [1] [µM] | block of IL-2 induced STAT5 phosphorylation in isolated wild type T cells [2] | IC50 [3] [µM] | block of IL-2 induced STAT5 phosphorylation in T cells from JAK3 Cys905Ser knockin mice [4] | IC50 [5] [µM] | activity remaining in the presence of the inhibitor: ERK1 [6] | inhibition of IL-10 signaling in macrophages ([7]; 5 μM) | block of STAT phosphorylation by IL-10 ([7]; 10 μM as printed in discussion) | inhibition of IFNβ signaling in macrophages ([8]; 5 μM) | block of STAT phosphorylation by IFNβ ([8]; 10 μM as printed in discussion) | activity remaining in the presence of the inhibitor: PAK4 [9] | inhibition of GM-CSF signaling in macrophages [10] | remaining activity at 1 µM [11] [%] |
| --- | --- | --- | --- | --- | --- | --- | --- | --- | --- | --- | --- | --- | --- |
| C=CC(=O)N1C[C@H](Nc2ncnc3[nH]ccc23)CC[C@@H]1C [PF-06651600, 1-((2S,5R)-5-((7H-Pyrrolo[2,3-d]pyrimidin-4-yl)amino)-2-methylpiperidin-1-yl)prop-2-en-1-one, reference compound] | […] | able to block | > 10 | did not block | > 10 |  |  |  |  |  |  |  |  |
| C=CC(=O)Nc1cccc(CNc2nc(Nc3ccc(N4CCN(C)CC4)cc3OC)ncc2Cl)c1 [TL6-144] |  |  |  |  |  | 94 | does not inhibit | did not block | does not inhibit | did not block | 99 | does not inhibit |  |
| C=CC(=O)Nc1cccc(CNc2nc(Nc3ccc(N4CCOCC4)cc3)ncc2Cl)c1 [TL8-52] |  |  |  |  |  | 94 |  |  |  |  | 85 |  | 100 |
